Results as given in patent US12304904B2, “Bicyclic [4,6,0] hydroxamic acids as HDAC inhibitors” (Valo Health, Inc., priority 2015, dated 2025).

Target: T1, HDAC6 (Homo sapiens, UniProt Q9UBN7)
T1 construct: Full length human recombinant HDAC6 protein were expressed in baculoviral system; made in house
T1 sequence (Q9UBN7 1-1215): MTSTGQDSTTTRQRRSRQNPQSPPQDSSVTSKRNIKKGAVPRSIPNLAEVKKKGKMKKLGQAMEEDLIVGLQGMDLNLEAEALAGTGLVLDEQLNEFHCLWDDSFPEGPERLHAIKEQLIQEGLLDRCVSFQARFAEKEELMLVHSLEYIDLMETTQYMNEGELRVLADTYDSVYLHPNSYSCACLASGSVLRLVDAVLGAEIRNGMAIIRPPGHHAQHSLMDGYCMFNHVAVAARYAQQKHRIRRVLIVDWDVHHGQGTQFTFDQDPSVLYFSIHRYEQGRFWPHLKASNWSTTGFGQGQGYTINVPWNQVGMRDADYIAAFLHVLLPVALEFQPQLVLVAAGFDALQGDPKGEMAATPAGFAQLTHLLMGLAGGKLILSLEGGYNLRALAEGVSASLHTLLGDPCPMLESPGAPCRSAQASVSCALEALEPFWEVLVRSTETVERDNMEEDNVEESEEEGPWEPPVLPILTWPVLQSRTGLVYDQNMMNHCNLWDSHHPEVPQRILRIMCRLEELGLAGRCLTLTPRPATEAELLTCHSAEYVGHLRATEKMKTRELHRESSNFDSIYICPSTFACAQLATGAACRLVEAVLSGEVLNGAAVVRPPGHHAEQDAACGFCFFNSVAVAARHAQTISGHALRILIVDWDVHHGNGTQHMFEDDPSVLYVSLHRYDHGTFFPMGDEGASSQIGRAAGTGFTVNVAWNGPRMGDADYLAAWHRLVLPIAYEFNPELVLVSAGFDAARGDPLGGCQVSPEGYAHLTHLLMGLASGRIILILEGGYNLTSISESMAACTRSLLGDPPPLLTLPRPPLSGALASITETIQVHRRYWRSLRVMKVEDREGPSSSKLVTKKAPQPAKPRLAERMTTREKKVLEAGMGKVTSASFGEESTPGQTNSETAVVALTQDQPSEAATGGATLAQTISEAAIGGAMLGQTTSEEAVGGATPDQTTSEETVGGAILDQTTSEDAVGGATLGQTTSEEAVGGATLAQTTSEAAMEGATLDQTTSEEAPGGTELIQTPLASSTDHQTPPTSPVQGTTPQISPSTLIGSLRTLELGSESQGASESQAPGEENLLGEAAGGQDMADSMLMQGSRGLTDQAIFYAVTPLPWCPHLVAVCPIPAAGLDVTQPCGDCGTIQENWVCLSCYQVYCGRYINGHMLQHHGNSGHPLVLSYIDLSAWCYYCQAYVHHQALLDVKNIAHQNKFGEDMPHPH
Assay: In vitro histone deacetylase assay: enzymatic HDAC6 electrophoretic mobility shift assay
Assay type: biochemical
Settings: full length human recombinant HDAC6, 1 nM enzyme, 2 μM peptide substrate RHKK(Ac)-NH2, 25° C.; read-out: Inhibitory Concentration (IC50) against HDAC6, Activity Range
Description: The enzymatic HDAC6 assay was performed using electrophoretic mobility shift assay. Full length human recombinant HDAC6 protein were expressed in baculoviral system and purified by affinity chromatography. The enzymatic reactions were assembled in 384 well plates in a total volume of 25 μL in a reaction buffer composing: 100 mM HEPES, pH7.5, 25 mM KCl, 0.1% bovine serum albumin, 0.01% Triton X-100, 1% DMSO (from compounds) 2 μM of the fluorescently labeled peptide substrate and enzyme. The enzyme was added at a final concentration of 1 nM. The peptide substrate RHKK(Ac)—NH2 was used. The compounds were tested at 12 concentrations spaced by 3× dilution intervals. Negative control samples (0%-inhibition in the absence of inhibitor) and positive control samples (100%-inhibition) were assembled in replicates of four in each assay plate. The reactions were incubated at 25° C. and quenched by the addition of 45 μL of termination buffer (100 mM HEPES, pH 7.5, 0.01% Triton X-100, 0.05% SDS).
The terminated assay plates were analyzed on LabChip® 3000 microfluidic electrophoresis instrument (Perkin Elmer/Caliper Life Sciences). The fluorescence intensity of the electrophoretically separated de-acetylated product and substrate peptide were measured. Activity in each sample was determined as the product to sum ratio (PSR): P/(S+P), where P is the peak height of the product peptide and S is the peak height of the substrate peptide. Percent inhibition (Pinh) was determined using the following equation:
Pinh=(PSR0%−PSRinh)/(PSR0%−PSR100%)*100, where PSRinh is the product sum ratio in the presence of inhibitor, PSR0% is the average product sum ration in the absence of inhibitor and PSR100% is the average product sum ratio in 100%-inhibition control samples. The IC50 values of inhibitors are determined by fitting the %-inhibition curves with 4 parameter dose-response model using XLfit 4 software.

IC50 [nM] | Compound
≤ 100 | CC1(C(=O)N2CCCOc3cc(C(=O)NO)ccc3C2)CCOCC1 [N-hydroxy-5-(4-methyltetrahydro-2H-pyran-4-carbonyl)-3,4,5,6-tetrahydro-2H-benzo[b][1,5]oxazocine-9-carboxamide]
100 to 500 | O=C(NO)c1ccc2c(c1)OCCCN(C(=O)C1CCOCC1)C2 [N-hydroxy-5-(tetrahydro-2H-pyran-4-carbonyl)-3,4,5,6-tetrahydro-2H-benzo[b][1,5]oxazocine-9-carboxamide]
> 500 | O=C(NO)c1ccc2c(c1)OCCCNC2 [N-hydroxy-3,4,5,6-tetrahydro-2H-benzo[b][1,5]oxazocine-9-carboxamide]
